Results reported in patent publication US20220395553A1, “CXCR4 ANTAGONIST PEPTIDES” (COHBAR, INC., priority 2019, published 2022).
Square brackets hold non-standard residues; d marks the D form. Peptide text beside a SMILES is read from it.

Experiments:
[1] = system: CXCR4/CXCL12 induced p-MEK; assay: CXCR4/CXCL12 induced p-MEK in Jurkat cells (ELISA); type: cell-based, human; details: 5 nM CXCL12, 5 min
Description: The assay was performed following a protocol similar to that described by Peng, et al., Mol Cancer Ther., 14 480-90 (2015), incorporated herein by reference. […] Jurkat cells were resuspended in standard growth media (RPMI+GlutaMax media; Gibco/Thermo Fisher Scientific; Gaithersburg, Md.) containing 10% FBS and 1% penicillin/streptomycin. Assays were performed using fresh or conditioned media (media cultured overnight in presence of Jurkat cells) to resuspend cells at density of 2×10^6 cells/ml and […] of cell suspension was immediately placed in 1.7 ml microfuge tubes. […] Following the 5 min incubation, cells were centrifuged at 1000×g for 4 min at 4° C. The supernatant was removed and the cells were rinsed with 1 ml of HBSS containing calcium and magnesium. The HBSS was removed and the cells were immediately lysed in 150 l of lysis buffer included with Phospho-MEK1 (Ser217/221) Sandwich ELISA kit (Cell Signaling Technology; Danvers, Mass.); lysis buffer was supplemented with 1 m M PMSF (Millipore-Sigma; Saint Louis, Mo.) and Halt protease/phosphatase inhibitor cocktail (Thermo-Fisher; Waltham, Mass.) prior to use. The samples were then placed on ice for 10 min and vortexed periodically. Following the lysis step, the samples were centrifuged at 12,500 rpm for 10 min at 4° C. p-MEK expression in each of the samples was then measure using Phospho-MEK1 (Ser217/221) Sandwich ELISA kit according to manufacturer's instructions. Absorbance was measured using a Cytation 3 plate reader at […] (BioTek; Winooski, Vt.).

human CXCR4 [2] = biological target: T1, human CXCR4 (Homo sapiens, UniProt P61073); assay: IC50 for inhibition of CXCR4 activation, β-Arrestin recruitment (Example 22); type: cell-based; design: host or cells: C2C12 (mouse myoblast) CXCR4 β-Arrestin PathHunter cell line
Description: The assay was run with the DiscoverX protocol. β-Arrestin recruitment assays were performed by Eurofins-DiscoverX (Fremont, Calif.) using C2C12 CXCR4 β-Arrestin cell line (co-expressing ProLink tagged human CXCR4 and Enzyme Acceptor tagged β-Arrestin) and PathHunter detection kit. Peptides were initially prepared as 1 mM stock in H2O and tested in ten (10)-step concentration response curves using 3-fold dilution steps with 1 μM as highest concentration; a concentration range of 1 μM-0.05 nM was tested. C2C12 CXCR4 β-Arrestin cells were seed onto 384-well plates in standard medium. […] At the end of the 90 min incubation period, β-Arrestin recruitment in response to various treatments was quantified using a chemiluminescent complementation reporter assay to measure association of tagged human […] (ProLink tag) and tagged β-Arrestin (Enzyme Acceptor tag).

human CXCR4 [3] = biological target: T1, human CXCR4; assay: CXCR4/CXCL12 binding, HTRF format, single concentration (Example 23); design: host or cells: HEK293 (Tag-lite CXCR4 cells, frozen aliquots, transient expression); details: 15 nM CXCR4R fluorescent probe, 3 hours, HEK293 Tag-lite CXCR4 cells
Method in brief: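 Tag-lite CXCR4 cells were exposed to peptide at 400 nM final with 15 nM (EC80) fluorescent CXCR4 probe for 3 h at room temperature. HTRF was read, and the 665/620 nm ratio ×10,000 measured probe bound to terbium-labelled receptor.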

T1 sequence (P61073 whole entry): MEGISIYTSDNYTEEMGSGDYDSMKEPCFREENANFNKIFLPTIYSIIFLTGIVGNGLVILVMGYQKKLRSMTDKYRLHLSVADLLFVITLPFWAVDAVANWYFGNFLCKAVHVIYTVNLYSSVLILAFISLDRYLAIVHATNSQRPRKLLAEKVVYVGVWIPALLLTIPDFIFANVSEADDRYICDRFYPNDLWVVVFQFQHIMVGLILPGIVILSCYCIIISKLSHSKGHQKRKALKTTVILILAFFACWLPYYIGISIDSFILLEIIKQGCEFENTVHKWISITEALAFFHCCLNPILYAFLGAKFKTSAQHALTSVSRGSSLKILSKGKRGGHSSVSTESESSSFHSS

Structure (SMILES)	Percent Inhibition of CXCR4/CXCL12 Induced p-MEK (100 nM Test Article) [1] [%]	Percent Inhibition of CXCR4/CXCL12 Induced p-MEK (1 μM Test Article) [1] [%]	IC50 (human CXCR4 [2]) [nM]	Percent Inhibition of CXCR4/CXCL12 Binding (400 nM peptide) (human CXCR4 [3]) [%]
CC(C)C[C@H](NC(=O)[C@H](CO)NC(=O)[C@H](CO)NC(=O)[C@H](CCCNC(=N)N)NC(=O)[C@@H](NC(=O)[C@H](CO)NC(=O)[C@H](Cc1c[nH]cn1)NC(=O)[C@H](Cc1c[nH]cn1)NC(=O)[C@H](Cc1ccc(O)cc1)NC(=O)[C@H](CCCNC(=N)N)NC(=O)[C@H](CCCNC(=N)N)NC(=O)[C@@H](C)N)C(C)C)C(=O)N[C@@H](CCCNC(=N)N)C(=O)N1CCC[C@H]1C(=O)N[C@@H](Cc1ccc(O)cc1)C(=O)N[C@H](C(=O)N[C@@H](CCCCN)C(=O)O)[C@@H](C)O [compound 33] (H-[dA]RRYHHSVRSSLRPYTK-OH; N-terminus and C-terminus assumed)	7	42	7	77
CC(C)C[C@H](NC(=O)[C@H](CO)NC(=O)[C@H](CO)NC(=O)[C@H](CCCNC(=N)N)NC(=O)[C@@H](NC(=O)[C@H](CO)NC(=O)[C@H](Cc1c[nH]cn1)NC(=O)[C@H](Cc1c[nH]cn1)NC(=O)[C@H](Cc1ccc(O)cc1)NC(=O)[C@H](CCCNC(=N)N)NC(=O)[C@H](CCC(=O)O)NC(=O)[C@@H](C)N)C(C)C)C(=O)N[C@@H](CCCNC(=N)N)C(=O)N1CCC[C@H]1C(=O)N[C@@H](Cc1ccc(O)cc1)C(=O)N[C@H](C(=O)N[C@@H](CCCCN)C(=O)O)[C@@H](C)O [compound 34] (H-[dA]ERYHHSVRSSLRPYTK-OH; N-terminus and C-terminus assumed)	−1	2	> 1000	−17
CC(C)C[C@H](NC(=O)[C@H](CO)NC(=O)[C@H](CO)NC(=O)[C@H](CCCNC(=N)N)NC(=O)[C@@H](NC(=O)[C@H](CO)NC(=O)[C@H](Cc1c[nH]cn1)NC(=O)[C@H](Cc1c[nH]cn1)NC(=O)[C@H](Cc1ccc(O)cc1)NC(=O)[C@H](CC(=O)O)NC(=O)[C@H](CCCNC(=N)N)NC(=O)[C@@H](N)CC(C)C)C(C)C)C(=O)N[C@@H](CCCNC(=N)N)C(=O)N1CCC[C@H]1C(=O)N[C@@H](Cc1ccc(O)cc1)C(=O)N[C@H](C(=O)N[C@@H](CCCCN)C(=O)O)[C@@H](C)O [compound 36] (H-LRDYHHSVRSSLRPYTK-OH; N-terminus and C-terminus assumed)	22	−5	> 1000	−11
CC(C)C[C@H](NC(=O)[C@H](CO)NC(=O)[C@H](CO)NC(=O)[C@H](CCCNC(=N)N)NC(=O)[C@@H](C)NC(=O)[C@@H](NC(=O)[C@H](Cc1c[nH]cn1)NC(=O)[C@H](Cc1c[nH]cn1)NC(=O)[C@H](Cc1ccc(O)cc1)NC(=O)[C@H](CCCNC(=N)N)NC(=O)[C@H](CCC(=O)O)NC(=O)[C@@H](N)CC(C)C)[C@@H](C)O)C(=O)N[C@@H](CCCNC(=N)N)C(=O)N1CCC[C@H]1C(=O)N[C@@H](Cc1ccc(O)cc1)C(=O)N[C@H](C(=O)N[C@@H](CCCCN)C(=O)O)[C@@H](C)O [compound 40] (H-LERYHHT[dA]RSSLRPYTK-OH; N-terminus and C-terminus assumed)	33	94	5	76
CC(C)C[C@H](NC(=O)[C@H](CO)NC(=O)[C@H](CO)NC(=O)[C@H](CCCNC(=N)N)NC(=O)[C@@H](C)NC(=O)[C@H](CO)NC(=O)[C@H](Cc1c[nH]cn1)NC(=O)[C@H](CC(N)=O)NC(=O)[C@H](Cc1ccc(O)cc1)NC(=O)[C@H](CCCNC(=N)N)NC(=O)[C@H](CCC(=O)O)NC(=O)[C@@H](N)CC(C)C)C(=O)N[C@@H](CCCNC(=N)N)C(=O)N1CCC[C@H]1C(=O)N[C@@H](Cc1ccc(O)cc1)C(=O)N[C@H](C(=O)N[C@@H](CCCCN)C(=O)O)[C@@H](C)O [compound 43] (H-LERYNHS[dA]RSSLRPYTK-OH; N-terminus and C-terminus assumed)	5	40	14	53
CC(C)C[C@H](NC(=O)[C@H](CO)NC(=O)[C@H](CO)NC(=O)[C@H](CCCNC(=N)N)NC(=O)[C@@H](C)NC(=O)[C@H](CO)NC(=O)[C@H](Cc1c[nH]cn1)NC(=O)[C@H](Cc1c[nH]cn1)NC(=O)[C@H](Cc1ccccc1)NC(=O)[C@H](CCCNC(=N)N)NC(=O)[C@H](CCC(=O)O)NC(=O)[C@@H](N)CC(C)C)C(=O)N[C@@H](CCCNC(=N)N)C(=O)N1CCC[C@H]1C(=O)N[C@@H](Cc1ccc(O)cc1)C(=O)N[C@H](C(=O)N[C@@H](CCCCN)C(=O)O)[C@@H](C)O [compound 55] (H-LERFHHS[dA]RSSLRPYTK-OH; N-terminus and C-terminus assumed)	16	72	4	56
CC(C)C[C@H](NC(=O)[C@H](CO)NC(=O)[C@H](CO)NC(=O)[C@H](CCCNC(=N)N)NC(=O)[C@@H](NC(=O)[C@H](CO)NC(=O)[C@H](Cc1c[nH]cn1)NC(=O)[C@H](Cc1c[nH]cn1)NC(=O)[C@H](Cc1ccc(O)cc1)NC(=O)[C@H](CCCNC(=N)N)NC(=O)[C@H](CCCNC(=N)N)NC(=O)[C@@H](N)CC(C)C)C(C)C)C(=O)N[C@@H](CCCNC(=N)N)C(=O)N1CCC[C@H]1C(=O)N[C@@H](Cc1ccccc1)C(=O)N[C@H](C(=O)N[C@@H](CCCCN)C(=O)O)[C@@H](C)O [compound 59] (H-LRRYHHSVRSSLRPFTK-OH; N-terminus and C-terminus assumed)	43	93	3	−3
CC(C)C[C@H](NC(=O)[C@H](CO)NC(=O)[C@H](CO)NC(=O)[C@H](CCCNC(=N)N)NC(=O)[C@@H](C)NC(=O)[C@H](CO)NC(=O)[C@H](Cc1c[nH]cn1)NC(=O)[C@H](Cc1c[nH]cn1)NC(=O)[C@H](Cc1ccc(O)cc1)NC(=O)[C@H](CCCNC(=N)N)NC(=O)[C@H](CCC(=O)O)NC(=O)[C@@H](N)CC(C)C)C(=O)N[C@@H](CCCNC(=N)N)C(=O)N1CCC[C@H]1C(=O)N[C@@H](Cc1ccccc1)C(=O)N[C@H](C(=O)N[C@@H](CCCCN)C(=O)O)[C@@H](C)O [compound 61] (H-LERYHHS[dA]RSSLRPFTK-OH; N-terminus and C-terminus assumed)	15	46	8	54
CC(C)C[C@H](NC(=O)[C@H](CO)NC(=O)[C@H](CO)NC(=O)[C@H](CCCNC(=N)N)NC(=O)[C@@H](NC(=O)[C@H](CO)NC(=O)[C@H](Cc1c[nH]cn1)NC(=O)[C@H](Cc1c[nH]cn1)NC(=O)[C@H](Cc1ccc(O)cc1)NC(=O)[C@H](CCCNC(=N)N)NC(=O)[C@H](CCCNC(=N)N)NC(=O)[C@@H](N)CC(C)C)C(C)C)C(=O)N[C@@H](CC(=O)O)C(=O)N1CCC[C@H]1C(=O)N[C@@H](Cc1ccc(O)cc1)C(=O)N[C@H](C(=O)N[C@@H](CCCCN)C(=O)O)[C@@H](C)O [compound 67] (H-LRRYHHSVRSSLDPYTK-OH; N-terminus and C-terminus assumed)	−8	42	14	3
